Test results reported in article PMC6533572, “Elucidation of the Differences in Cinobufotalin’s Pharmacokinetics Between Normal and Diethylnitrosamine-Injured Rats: The Role of P-Glycoprotein” (Frontiers in Pharmacology, 2019).
“And” between values parts separate entries of the source, which are not always exact repeats. Equal values may be shown once. Read-outs that look alike come from different tables or passages of the source.

Experiment: Pharmacokinetic study after i.v. injection in normal and DEN-injured rats
Assay type: in vivo, Sprague Dawley rats
Conditions: i.v. 2.5 mg/kg, two-compartment model; for AUC / C0 / clearance / half-life: male, Sprague Dawley, rat, plasma, iv; for half-life: read-out: t1/2β (converted)
Description: Male Sprague Dawley rats (200–220 g), used for pharmacokinetic (PK) studies, were purchased from Beijing Vital River Laboratory Animal Technology Co., Ltd. (Beijing, China). All animals were housed under standardized condition (12 h light/dark schedule), and they were kept 1 week prior to experiments for acclimation. All animal experiments were carried out in accordance with the National Institutes of Health guide for the care and use of Laboratory animals (NIH Publications No. 8023, revised 1978) and were approved by the Medical and Research Ethics Committee of College of Medicine, Henan University.
For PK studies, the rats were randomly divided into two experimental groups (10 rats for normal rats group and 20 rats for DEN-injured rats group, considering the animal casualties during the modeling process). HCC rat model was established by intraperitoneal administration of 50 mg/kg DEN two times per week ([Fuchs et al., 2014]), and the control group rats were treated with normal saline in the same way. After 14 weeks of administration, three rats were randomly selected and anesthetized by anesthesia cocktail (Ketamine 50 mg/mL, Xylazine 3.3 mg/mL and Acetopromazine 3.3 mg/mL). Then the liver was taken out and photographed to determine whether the animal model was successfully constructed.
Before PK experiment, a cannula was introduced into the jugular vein of the anesthetized rat and administrated carprofen subcutaneously after the surgery. After observation for 24 h, when the activity and excretion of rats were normal, rats were dosed with cinobufotalin at 2.5 mg/kg through jugular vein cannula. Blood samples (200 μL) were withdrawn at each pointed time (5, 10, 15, 30, 45 min, and 1, 1.5, 2, 4, 6, 8, 12, and 24 h) after dosing, and whole blood was transferred into tubes pre-treated with heparin (1000 U/mL). Then an equal volume of saline was injected into rats through jugular vein cannula immediately. The blood samples were immediately centrifuged at 4°C (8000 g, 10 min) to obtain the plasma, and the plasma samples were stored at -80°C until analysis. After sampling at the last time point, all rats were anesthetized immediately. Blood was washed out with ice-cold saline through the hepatic portal vein, and then liver tissues were removed, weighed and stored at -80°C until analysis.
Hundred microliter of plasma was transferred to a new clean tube, and samples were treated with protein precipitation assay as described in Preparation of rat plasma samples section. Then calibration curve was prepared to quantify the amount of cinobufotalin in plasma samples according to the steps as described in method validation part.
PK and statistical data analyses were performed using WinNonlin 3.3. The two-compartment model (two-compartment i.v.-Bolus, macro-constants, no lag time, first order elimination, Figure 2) was selected to obtain the PK parameters of cinobufotalin in rats. The model equation was as followed:
(3) C(t)=A∗EXP(−Alpha∗t)+B∗EXP(−Beta∗t)

SMILES: CC(=O)O[C@H]1[C@H]2O[C@]23[C@@H]2CC[C@]4(O)C[C@@H](O)CC[C@]4(C)[C@H]2CC[C@]3(C)[C@H]1c1ccc(=O)oc1 [Cinobufotalin]
- CL2 (DEN-injured rats): 135 ± 28.3 mL/min/kg
- K10 (DEN-injured rats): 1.0 ± 0.3^* 1/h
- K21 (DEN-injured rats): 0.3 ± 0.1 h⁻¹
- V (DEN-injured rats): 2.4 ± 0.6 L/kg
- V2 (DEN-injured rats): 31.5 ± 10.4 L/kg
- K12 (DEN-injured rats, 2.5 mg/kg): 3.2 ± 0.8 h⁻¹
- t1/2α (DEN-injured rats, 2.5 mg/kg): 0.2 ± 0.1 h
- AUC (2.5 mg/kg, DEN-injured rats): 1100 ± 300 ng·h/mL
- C0 (2.5 mg/kg, DEN-injured rats): 1100 ± 300 ng/mL
- clearance (2.5 mg/kg, DEN-injured rats): 40 mL/min/kg
- half-life (2.5 mg/kg, DEN-injured rats): 13.4 ± 5.8 h
- AUC (2.5 mg/kg, normal rats): 2600 ± 500 ng·h/mL
- C0 (2.5 mg/kg, normal rats): 1400 ± 400 ng/mL
- clearance (2.5 mg/kg, normal rats): 16.7 mL/min/kg
- half-life (2.5 mg/kg, normal rats): 13.2 ± 1.3 h
- CL2 (normal rats): 55 ± 6.7 mL/min/kg
- K10 (normal rats): 0.5 ± 0.2 h⁻¹
- K21 (normal rats): 0.3 ± 0 h⁻¹
- V (normal rats): 2.1 ± 0.6 L/kg
- V2 (normal rats): 13.1 ± 1.3 L/kg
- t1/2α (normal rats): 0.3 ± 0.1 h
- K12 (normal rats, 2.5 mg/kg): 1.8 ± 0.5 h⁻¹ and 1.8 ± 0.8 h⁻¹
